Source: patent publication US4714619A, “Aminomalonyl alanine compounds as dietary sweeteners” (priority 1986, dated 1987)
Counter-ions that a name gives are not always drawn. Like-named read-outs stand apart in the source and are kept apart here.

Experiments:
[1] = Comparative taste test, D- versus L-configuration (Table 2, FIG. 3); design: Sweet? (average score) / Bitter? (average score) / Salty? (average score) / Off Taste? (average score) / After Taste? (average score): scale not given here
Procedure: The compounds were dissolved in distilled water at the concentrations specified in Table 2. Solutions were made up and kept overnight in a refrigerator. The following day, they were poured into individual graduated plastic cups (10 ml per cup) and allowed to warm to room temperature. A taste panel was convened and testing begun that same day. Tasting and evaluation was done by the standard protocol developed by Dr. Robert Gesteland of Taste and Smell Consulting Group, Inc.
The first solution tasted (reference standard for the panel) was 0.25M sucrose. Other solutions were tasted in radomized fashion. The random order was arrived at as follows:
i. An ordered list of the compounds and concentrations was prepared (26 solutions in all).
ii. 0.25M sucrose was designated as 1.
iii. A standard table of random numbers was used in which the numbers were grouped as two-digit numbers. A point in the table was chosen at random (blind pointing). The first solution in the list was given the first random number in the sequence (read right-to-left, up-to-down) which is between 2 and 26. The second solution in the list was given the next random number in the sequence between 2 and 26, etc. Repeat numbers were ignored.
iv. Solutions were then labeled A (for number 1) B (for random number 2), C-Z.
v. Panelists were instructed to taste the solutions in alphabetical order.
With the assistance of Taste and Smell Consulting Group, Inc., taste panel members were trained adn tested for their ability to discriminate sucrose solutions of varying concentrations. In summary it may be stated that all 9 panel members had acceptble correlation scores. Their results were in good agreement with those which have been previously reported in siilar types of studies. For the test series the correlations for each panelist for sucrose and aspartame were acceptable as were the overall results obtained by averaging individual scores. The results of the taste panel are set forth in Table 2 wherein the parenthetical figures represent the standard error values for the number above.

[2] = Taste panel (Table 1, FIG. 2); conditions: normalized to 100

Which results are given for `CC(C)OC(=O)[C@H](C)NC(=O)C(N)C(=O)O` (mixture of isomers) [Compound (20), DL-Aminomalonyl-L-alanine Isopropyl Ester]?
sweet taste (words) [1]: not sweet; After Taste? (average score) ([1]; 0.0431 Millimolar): 0; Bitter? (average score) ([1]; 0.0431 Millimolar): 9; Off Taste? (average score) ([1]; 0.0431 Millimolar): 5; Pleasant? (average score) ([1]; 0.0431 Millimolar): 14; Salty? (average score) ([1]; 0.0431 Millimolar): 3; Sweet? (average score) ([1]; 0.0431 Millimolar): 3; After Taste? (average score) ([1]; 0.4307 Millimolar): 8; Bitter? (average score) ([1]; 0.4307 Millimolar): 14; Off Taste? (average score) ([1]; 0.4307 Millimolar): 8; Pleasant? (average score) ([1]; 0.4307 Millimolar): 5; Salty? (average score) ([1]; 0.4307 Millimolar): 16; Sweet? (average score) ([1]; 0.4307 Millimolar): 8; After Taste? (average score) ([1]; 4.3066 Millimolar): 5; Bitter? (average score) ([1]; 4.3066 Millimolar): 0; Off Taste? (average score) ([1]; 4.3066 Millimolar): 5; Pleasant? (average score) ([1]; 4.3066 Millimolar): 19; Salty? (average score) ([1]; 4.3066 Millimolar): 0; Sweet? (average score) ([1]; 4.3066 Millimolar): 5; sweet taste (words) ([1]; listed as 20): non-sweet

For `C[C@@H](NC(=O)C(N)C(=O)O)C(=O)OC12CC3CC(CC(C3)C1)C2` (mixture of isomers) [(22), DL-Aminomalonyl-D-alanine 1-Adamantyl Ester Citrate], which “sweet taste (words)” value [1] is on record?
The value was “sweet”.

Which “sweet taste (words)” value [1] does the source give for `CC(NC(=O)C(N)C(=O)O)C(=O)OC1CCCCC1C` (mixture of isomers) [(23), DL-Aminomalonyl-D-alanine trans-2-Methylcyclohexyl Ester Citrate] here?
Its value is “sweet”.

Which results are given for `OC[C@H]1O[C@@](CO)(O[C@H]2O[C@H](CO)[C@@H](O)[C@H](O)[C@H]2O)[C@@H](O)[C@@H]1O` [Sucrose]?
After Taste? (average score) ([1]; 62.0000 Millimolar): 10; Bitter? (average score) ([1]; 62.0000 Millimolar): 6; Off Taste? (average score) ([1]; 62.0000 Millimolar): 9; Pleasant? (average score) ([1]; 62.0000 Millimolar): 17; Salty? (average score) ([1]; 62.0000 Millimolar): 9; Sweet? (average score) ([1]; 62.0000 Millimolar): 3; After Taste? (average score) ([1]; 125.0000 Millimolar): 4; Bitter? (average score) ([1]; 125.0000 Millimolar): 2; Off Taste? (average score) ([1]; 125.0000 Millimolar): 3; Pleasant? (average score) ([1]; 125.0000 Millimolar): 21; Salty? (average score) ([1]; 125.0000 Millimolar): 1; Sweet? (average score) ([1]; 125.0000 Millimolar): 30; After Taste? (average score) ([1]; 250.0000 Millimolar): 15; Bitter? (average score) ([1]; 250.0000 Millimolar): 3; Off Taste? (average score) ([1]; 250.0000 Millimolar): 12; Pleasant? (average score) ([1]; 250.0000 Millimolar): 34; Salty? (average score) ([1]; 250.0000 Millimolar): 7; Sweet? (average score) ([1]; 250.0000 Millimolar): 52; After Taste? (average score) ([1]; 500.0000 Millimolar): 9; Bitter? (average score) ([1]; 500.0000 Millimolar): 0; Off Taste? (average score) ([1]; 500.0000 Millimolar): 10; Pleasant? (average score) ([1]; 500.0000 Millimolar): 35; Salty? (average score) ([1]; 500.0000 Millimolar): 0; Sweet? (average score) ([1]; 500.0000 Millimolar): 78; After Taste? (average score) ([1]; 1000.0000 Millimolar): 8; Bitter? (average score) ([1]; 1000.0000 Millimolar): 0; Off Taste? (average score) ([1]; 1000.0000 Millimolar): 12; Pleasant? (average score) ([1]; 1000.0000 Millimolar): 28; Salty? (average score) ([1]; 1000.0000 Millimolar): 0; Sweet? (average score) ([1]; 1000.0000 Millimolar): 95; After Taste? (average score) ([2]; 62.0000 Millimolar): 0; Bitter? (average score) ([2]; 62.0000 Millimolar): 3; Off Taste? (average score) ([2]; 62.0000 Millimolar): 4; Pleasant? (average score) ([2]; 62.0000 Millimolar): -4; Salty? (average score) ([2]; 62.0000 Millimolar): 0; Sweet? (average score) ([2]; 62.0000 Millimolar): 13; After Taste? (average score) ([2]; 125.0000 Millimolar): 5; Bitter? (average score) ([2]; 125.0000 Millimolar): 2; Off Taste? (average score) ([2]; 125.0000 Millimolar): 4; Pleasant? (average score) ([2]; 125.0000 Millimolar): 18; Salty? (average score) ([2]; 125.0000 Millimolar): 8; Sweet? (average score) ([2]; 125.0000 Millimolar): 30; After Taste? (average score) ([2]; 250.0000 Millimolar): 0; Bitter? (average score) ([2]; 250.0000 Millimolar): 0; Off Taste? (average score) ([2]; 250.0000 Millimolar): 0; Pleasant? (average score) ([2]; 250.0000 Millimolar): 49; Sweet? (average score) ([2]; 250.0000 Millimolar): 64; After Taste? (average score) ([2]; 500.0000 Millimolar): 7; Bitter? (average score) ([2]; 500.0000 Millimolar): 6; Off Taste? (average score) ([2]; 500.0000 Millimolar): 5; Pleasant? (average score) ([2]; 500.0000 Millimolar): 32; Salty? (average score) ([2]; 500.0000 Millimolar): 12; Sweet? (average score) ([2]; 500.0000 Millimolar): 75; After Taste? (average score) ([2]; 1000.0000 Millimolar): 30; Bitter? (average score) ([2]; 1000.0000 Millimolar): 0; Off Taste? (average score) ([2]; 1000.0000 Millimolar): 0; Pleasant? (average score) ([2]; 1000.0000 Millimolar): 26; Salty? (average score) ([2]; 1000.0000 Millimolar): 1; Sweet? (average score) ([2]; 1000.0000 Millimolar): 97

What does the source list for `C[C@@H](NC(=O)C(N)C(=O)O)C(=O)OC1C2(C)CCC(C2)C1(C)C` (mixture of isomers) [Compound (21), DL-Aminomalonyl-D-alanine Fenchyl Ester]?
sweet taste (words) [1]: sweet; After Taste? (average score) ([1]; 0.0306 Millimolar): 12; Bitter? (average score) ([1]; 0.0306 Millimolar): 3; Off Taste? (average score) ([1]; 0.0306 Millimolar): 13; Pleasant? (average score) ([1]; 0.0306 Millimolar): -9; Salty? (average score) ([1]; 0.0306 Millimolar): 4; Sweet? (average score) ([1]; 0.0306 Millimolar): 1; After Taste? (average score) ([1]; 0.3064 Millimolar): 50; Bitter? (average score) ([1]; 0.3064 Millimolar): 29; Off Taste? (average score) ([1]; 0.3064 Millimolar): 56; Pleasant? (average score) ([1]; 0.3064 Millimolar): -57; Salty? (average score) ([1]; 0.3064 Millimolar): 9; Sweet? (average score) ([1]; 0.3064 Millimolar): 8; After Taste? (average score) ([1]; 3.0637 Millimolar): 79; Bitter? (average score) ([1]; 3.0637 Millimolar): 90; Off Taste? (average score) ([1]; 3.0637 Millimolar): 99; Pleasant? (average score) ([1]; 3.0637 Millimolar): -83; Salty? (average score) ([1]; 3.0637 Millimolar): 62; Sweet? (average score) ([1]; 3.0637 Millimolar): 13
